Data reported in patent publication US20090076141A1, “Use of Propofol Prodrugs for Treating Neuropathic Pain” (XenoPort, Inc., priority 2007, published 2009).

What was measured:
male beagle dogs = test: Acute toxicity study, single oral dose in dogs; format: in vivo
Experimental: Acute toxicity studies were also performed by orally administering a single dose of compound (2) formulated in water to groups of male beagle dogs at doses from about 25 mg-eq/kg to about 150 mg-eq/kg.

male rats = test: Multiple dose study in rats (five days, once a day); format: in vivo; conditions: oral gavage once a day for five days, 49 to 97 mg-eq/kg
Experimental: Multiple dose studies in rats were performed by orally administering compound (2) formulated in water to groups of male rats at doses of 49 mg-eq/kg to 97 mg-eq/kg for a period of five days, by oral gavages administered once a day.

rats = test: Acute toxicity study, single oral dose in rats; format: in vivo
Experimental: Acute toxicity studies in rats were undertaken to assess the tolerance of a single oral dose of compound (2) formulated in water. […] Complete recovery from hypoactivity, sedation, and anesthesia occurred in all rats within about 8 hours after dose. Doses above about 1552 mg-eq/kg (about 800 mg-eq/kg of propofol) were not tested.

[1] = orally administered as homogeneous liquid suspension, relative to equivalent intravenous dose of propofol; cited from earlier work
[2] = oral dosing, rats; cited from earlier work
[3] = cited from earlier work
[4] = rats, single oral dose about 49 to about 388 mg-eq/kg
[5] = rats, single oral dose about 582 to about 970 mg-eq/kg
[6] = rats, single oral dose about 1164 to about 1552 mg-eq/kg

In the case of `CC(C)c1cccc(C(C)C)c1OC(=O)OC[C@H](N)C(=O)O` (stereo in doubt) [Compound (2), 2-amino-3-(2,6-diisopropyl-phenoxycarbonyloxy)-propanoic acid], the “tolerance of a single oral dose” value (male beagle dogs; formulated in water, about 25 to about 150 mg-eq/kg) is reported as “well tolerated”, the sedation or anesthesia (male beagle dogs; single oral dose about 25 to about 150 mg-eq/kg) is reported as “No sedation or anesthesia was observed” and the adverse effects (male rats) is reported as “No adverse effects were observed”. The sedation or anesthesia (male rats) was “No sedation or anesthesia was observed”, the “tolerance of multiple doses” value (male rats) was “well tolerated” and the “complete recovery from hypoactivity, sedation, and anesthesia, time after dose” value (rats; all rats, single oral dose) was at most 8 h. The “tolerance of a single oral dose” value (rats; rats, formulated in water, about 49 to about 1552 mg-eq/kg of administered compound) was “well tolerated”, the “onset of transient hypoactivity after dose” value (rats; [4]) was at most 30 min and the “transient hypoactivity maintained, time post dose” value (rats; [4]) was “up to 4 hours”. For the same molecule, the “onset of sedation after dose” value (rats; [5]) was at most 1.5 h, the “sedation lasted, time post dose” value (rats; [5]) was “up to 4 hours” and the “anesthesia lasted, time post dose” value (rats; [6]) was “up to 2 hours”. The “onset of anesthesia after dose” value (rats; [6]) was at most 1 h.
For `CC(C)c1cccc(C(C)C)c1O` [propofol, 2,6-diisopropylphenol], the oral bioavailability [1] is given as “less than 5%” and the “administered drug undergoing first pass metabolism” value [2] is given as “approximately 90%”.
For `CC(C)c1cccc(C(C)C)c1OCOP(=O)(O)O` [O-phosphonooxymethyl propofol], the “time to maximum propofol concentration” value ([3]; oral administration) is given as “about 30 minutes” and the propofol oral bioavailability ([3]; rats, relative to equivalent intravenous dose of propofol) is given as 22.2%.
